Reference: US20230338647A1, “SUBCUTANEOUSLY IMPLANTED DEVICE FOR GASTROINTESTINAL ADMINISTRATION OF SUBSTANCES” (Endopump Ltd., priority 2018, published 2023)

Experiments:
[1] = Dissolution of L-DOPA/carbidopa/ascorbic acid mixture in 0.2 N HCl; type: physicochemical; conditions: 200 mg L-DOPA, 50 mg carbidopa, 2.5 mg ascorbic acid in 3.5 ml of 0.2 N HCl, vortexed and sonicated
Experimental: 3.5 ml of 0.2 N HCl were added to 200 mg of L- DOPA, 50 mg of carbidopa and 2.5 mg of ascorbic acid and the mixture was vortexed and then sonicated. […] Then 1N HCl was added dropwise till all L-DOPA was dissolved.

[2] = Solubility of levodopa esters and carbidopa propyl ester in water acidified with acetic acid; type: physicochemical
Experimental: Without limitation, in one example, substance 14 may include several levodopa esters, including the ethyl ester, propyl ester, isopropyl ester and butyl ester. In experiments, these esters were successfully dissolved in water to which was added acetic acid until attaining pH 5 (in some cases pH 4.5). […] The propyl ester of carbidopa was solubilized under the same conditions and a clear solution of 100 mg/ml of the carbidopa propyl ester was obtained. A mixture of each of the above levodopa esters with carbidopa propyl ester was prepared at a ratio of 4:1 (levodopa ester/carbidopa ester) and a clear solution was obtained. The solution of the mixture was stable for at least two weeks based on chromatographic determination of levodopa esters and carbidopa ester. The formulations of the levodopa esters together with carbidopa ester were prepared in diluted acetic acid and ascorbic acid at a pH 5. Each one of the above mentioned esters have good stability.

SMILES: N[C@@H](Cc1ccc(O)c(O)c1)C(=O)O [L- DOPA, L-3,4-dihydroxyphenylalanine]
- dissolution of L-DOPA (in words) [1]: did not fully dissolve

SMILES: CC(C)OC(=O)[C@@H](N)Cc1ccc(O)c(O)c1 [isopropyl ester]
- solubility ([2]; pH 5, aqueous buffer, thermodynamic from solid): ≥ 400 mg/mL

SMILES: CCOC(=O)[C@@H](N)Cc1ccc(O)c(O)c1 [ethyl ester]
- relative solubility among the levodopa esters (in words) [2]: highest solubility

SMILES: CCCOC(=O)[C@@H](N)Cc1ccc(O)c(O)c1 [propyl ester]
- soluble at a concentration of / clear solution obtained ([2]; pH 5): ≥ 400 mg/mL

SMILES: CCCOC(=O)C(C)(Cc1ccc(O)c(O)c1)NN (centres unmarked) [carbidopa propyl ester]
- soluble at a concentration of / clear solution obtained ([2]; water with acetic acid added until pH 5 (in some cases pH 4.5)): ≥ 100 mg/mL
